According to PMC5011342, “A high throughput drug screening assay to identify compounds that promote oligodendrocyte differentiation using acutely dissociated and purified oligodendrocyte precursor cells” (BMC Research Notes, 2016):
Where a name gives a salt, the structure may show the parent alone. Read-outs that look alike come from different tables or passages of the source.

Assays:
[1] = tested on: acutely dissociated and purified rat OPCs; assay: Acute OL differentiation assay (MBP expression/cell, immunofluorescent image quantification); assay type: cell-based; settings: for activation at 2 µM / activation at 10 µM / activation at 0.4 µM: Rattus norvegicus
In short: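 This acute differentiation assay used purified rat OPCs from postnatal day 6–7 pups, seeded into PDL/laminin-coated 96-well plates in differentiation medium lacking PDGF and FGF. Compounds were applied in quadruplicate after a 1–2 h preincubation at 37 °C, 10 % CO2, with 0.1 % DMSO negative and 40 ng/ml T3 positive controls in eight wells. After fixation on DIV4, anti-MBP immunofluorescence images yielded MBP expression/cell.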

expanded OPCs = assay: cells; settings: for viability at 0.1 µM / viability at 1 µM / viability at 10 µM: Rattus norvegicus, 72 h
In short: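 Toxicity screen: compounds added at 0.1, 1 and 10 µM to PDGF-AA-expanded OPCs in 96-well plates, 3-day incubation at 37 °C, 10% CO2, then alamarBlue 1:10 for 4 h with fluorescence readout. Results set screening doses of 10/2, 2/0.4 or 0.4/0.08 µM.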

[2] = 2 uM test compound, relative to quetiapine, sheet "All OLga data", read-out: OL differentiation, 2 uM (% Quet)
[3] = 10 uM test compound, relative to quetiapine, sheet "All OLga data", read-out: OL differentiation, 10 uM (% Quet)
[4] = test compound at 2 uM, NCC library screen, sheet "All OLga data", relative to quetiapine, read-out: 2 uM (% Quet)
[5] = read-out: 0.1 µM (% DMSO), alamarBlue viability of expanded OPCs, compound at 0.1 µM, sheet All Tox data
[6] = read-out: 1 µM (% DMSO), alamarBlue viability of expanded OPCs, compound at 1 µM, sheet All Tox data
[7] = read-out: 10 µM (% DMSO), alamarBlue viability of expanded OPCs, compound at 10 µM, sheet All Tox data
[8] = alamarBlue viability of expanded OPCs, compound at 0.1 µM, relative to DMSO control
[9] = alamarBlue viability of expanded OPCs, compound at 1 µM, relative to DMSO control
[10] = alamarBlue viability of expanded OPCs, compound at 10 µM, relative to DMSO control
[11] = test compound at 10 uM, NCC library screen, sheet "All OLga data", relative to quetiapine, read-out: 10 uM (% Quet)
[12] = read-out: 0.1 µM (% DMSO), alamarBlue viability, NCC library compound at 0.1 µM, sheet "All Tox data"
[13] = read-out: 1 µM (% DMSO), alamarBlue viability, NCC library compound at 1 µM, sheet "All Tox data"
[14] = read-out: 10 µM (% DMSO), alamarBlue viability, NCC library compound at 10 µM, sheet "All Tox data"
[15] = 0.4 uM test compound, relative to quetiapine, sheet "All OLga data", read-out: OL differentiation, 0.4 uM (% Quet)
[16] = test compound at 0.4 uM, MBP expression relative to quetiapine, NCC library screen, sheet "All OLga data", read-out: 0.4 uM (% Quet)
[17] = test compound at 2 uM, MBP expression relative to quetiapine, NCC library screen, sheet "All OLga data", read-out: 2 uM (% Quet)
[18] = test compound at 10 uM, MBP expression relative to quetiapine, NCC library screen, sheet "All OLga data", read-out: 10 uM (% Quet)

Row | SMILES | activation at 2 µM [1, 2] [%] | activation at 2 µM [1, 4] [%] | viability at 0.1 µM (expanded OPCs; [5]) [%] | viability at 1 µM (expanded OPCs; [6]) [%] | viability at 10 µM (expanded OPCs; [7]) [%] | 0.1 µM (% DMSO) (expanded OPCs; [8]) | 1 µM (% DMSO) (expanded OPCs; [9]) | 10 µM (% DMSO) (expanded OPCs; [10]) | activation at 10 µM [1, 11] [%] | further results
1 | CN(C)CCC=C1c2ccccc2COc2ccccc21 [Doxepin] | 47.3 | 36 | 81.5 | 85 | 64.4 | 109.3 | 91.6 | 52.1 | – | activation at 10 µM [1, 3]: 37.1%; activation at 0.4 µM ([1]; test compound at 0.4 uM, NCC library screen, sheet "All OLga data", relative to quetiapine, read-out: 0.4 uM (% Quet)): 2.7%
2 | CCC1=C(C)CN(C(=O)NCCc2ccc(S(=O)(=O)NC(=O)N[C@H]3CC[C@H](C)CC3)cc2)C1=O [Glimepiride] | – | -12.7 | – | – | – | – | – | – | -54 | viability at 0.1 µM (expanded OPCs; [12]): 97.2%; viability at 1 µM (expanded OPCs; [13]): 82.6%; viability at 10 µM (expanded OPCs; [14]): 83.6%
3 | Nc1nc(Cl)nc2c1ncn2[C@@H]1O[C@H](CO)[C@@H](O)[C@H]1O [2-Chloroadenosine] | – | – | – | – | – | – | – | – | – | OL differentiation, 2 uM (% Quet) ([1]; 2 uM test compound, relative to quetiapine, sheet "All OLga data"): 8.0 % Quet; OL differentiation, 10 uM (% Quet) ([1]; 10 uM test compound, relative to quetiapine, sheet "All OLga data"): 32.5 % Quet; 0.1 µM (% DMSO) (expanded OPCs; alamarBlue viability, NCC library compound at 0.1 µM, sheet "All Tox data"): 113.1 % DMSO; 1 µM (% DMSO) (expanded OPCs; alamarBlue viability, NCC library compound at 1 µM, sheet "All Tox data"): 99.2 % DMSO; 10 µM (% DMSO) (expanded OPCs; alamarBlue viability, NCC library compound at 10 µM, sheet "All Tox data"): 99.5 % DMSO
4 | CN(C)CCC(c1ccc(Br)cc1)c1ccccn1 (stereo not shown) [Brompheniramine] | 0.5 | – | – | – | – | – | – | – | – | activation at 0.4 µM [1, 15]: -2%; viability at 0.1 µM (expanded OPCs; [12]): 95.3%; viability at 1 µM (expanded OPCs; [13]): 84.4%; viability at 10 µM (expanded OPCs; [14]): 39.2%
5 | CN(CCOc1ccc(CC2SC(=O)NC2=O)cc1)c1ccccn1 (stereo not shown) [Rosiglitazone maleate] | 7.9 | – | 95.3 | 103 | 158 | – | – | – | – | –
6 | Cc1ccc(C)c(OCCCC(C)(C)C(=O)O)c1 [Gemfibrozil] | – | 0.66 | – | – | – | 90.1 | 88.1 | 86.3 | 16.1 | –
7 | C[C@]12CC[C@H]3[C@@H](CCC4=CC(=O)CC[C@@H]43)[C@@H]1CC[C@@H]2O [Nandrolone] | -5.9 | – | 94.4 | 98.5 | 96.2 | – | – | – | – | activation at 10 µM [1, 3]: -26.5%
8 | CCOC(=O)N1CCC(=C2c3ccc(Cl)cc3CCc3cccnc32)CC1 [Loratadine] | -36.8 | – | 90.8 | 77.7 | 13.9 | – | – | – | – | activation at 0.4 µM [1, 15]: 5.6%
9 | NC(=O)c1ncn([C@@H]2O[C@H](CO)[C@@H](O)[C@H]2O)n1 [Ribavirin] | – | – | – | – | – | 96.2 | 92.8 | 76.9 | – | activation at 0.4 µM [1, 16]: 8.6%; activation at 2 µM [1, 17]: 6.7%
10 | O=C(C1CCCCC1)N1CC(=O)N2CCc3ccccc3C2C1 (stereo not shown) [Praziquantel] | – | 0.6 | – | – | – | 85.2 | 85.1 | 85.6 | -9.5 | –
11 | Clc1ccc2nsnc2c1NC1=NCCN1 [Tizanidine] | – | – | – | – | – | 92.8 | 97.3 | 87.9 | – | activation at 2 µM [1, 17]: 13.7%; activation at 10 µM [1, 18]: -4.2%
12 | Cc1noc(NS(=O)(=O)c2ccc(N)cc2)c1C [Sulfisoxazole] | – | -3.5 | – | – | – | – | – | – | 7.6 | viability at 0.1 µM (expanded OPCs; [12]): 93.5%; viability at 1 µM (expanded OPCs; [13]): 99.1%; viability at 10 µM (expanded OPCs; [14]): 103%
13 | COc1ccc(C2CNC(=O)C2)cc1OC1CCCC1 (stereo not shown) [Rolipram] | 11.2 | – | 97.1 | 92.8 | 86.8 | – | – | – | – | activation at 10 µM [1, 3]: -14.2%
14 | CN1CCN(C2=Nc3cc(Cl)ccc3Nc3ccccc32)CC1 [Clozapine] | – | – | – | – | – | 78.7 | 61.3 | 24.6 | – | activation at 0.4 µM [1, 16]: -5.6%; activation at 2 µM [1, 17]: -39.3%
15 | COC1=C(OC)C(=O)C(CCCCCCCCCCO)=C(C)C1=O [Idebenone] | – | – | 99.7 | 80.9 | 11 | – | – | – | – | activation at 0.4 µM [1, 15]: -11.1%
16 | CCCSc1ccc2nc(NC(=O)OC)[nH]c2c1 [Albendazole] | – | – | – | – | – | 55.7 | 57.4 | 58.6 | – | activation at 0.4 µM ([1]; read-out: 0.4 uM (% Quet)): -27.1%; activation at 2 µM ([1]; read-out: 2 uM (% Quet)): -112%
17 | CCN1CCCC1CNC(=O)c1cc(S(N)(=O)=O)ccc1OC (stereo not shown) [Sulpiride] | -9.7 | – | 105 | 116 | 115 | – | – | – | – | activation at 10 µM [1, 3]: 6%
18 | CC1Cc2ccccc2N1NC(=O)c1ccc(Cl)c(S(N)(=O)=O)c1 (stereo not shown) [Indapamide] | – | -10 | – | – | – | – | – | – | -12.4 | viability at 0.1 µM (expanded OPCs; [12]): 95.2%; viability at 1 µM (expanded OPCs; [13]): 92.1%; viability at 10 µM (expanded OPCs; [14]): 101%
19 | NCc1ccc(S(N)(=O)=O)cc1 [Mafenide] | – | – | – | – | – | 97.9 | 90.1 | 86.7 | – | activation at 2 µM [1, 17]: 28.6%; activation at 10 µM [1, 18]: 10%
20 | O=C(NCCN1CCOCC1)c1ccc(Cl)cc1 [Moclobemide] | 9.8 | – | 99.2 | 110 | 113 | – | – | – | – | activation at 10 µM [1, 3]: -9.7%
21 | CC(C)(S)[C@@H](N)C(=O)O [Penicillamine] | – | -0.01 | – | – | – | 86.6 | 87.9 | 92.6 | 6 | –
22 | C[C@@H]1O[C@@H](OC[C@H]2O[C@@H](Oc3c(-c4ccc(O)c(O)c4)oc4cc(O)cc(O)c4c3=O)[C@H](O)[C@@H](O)[C@@H]2O)[C@H](O)[C@H](O)[C@H]1O [Rutin] | 22.9 | – | 106 | 108 | 106 | – | – | – | – | activation at 10 µM [1, 3]: 21.3%
23 | O=C(O)CCCc1ccccc1 [4-Phenylbutyric acid] | – | 9 | – | – | – | 90.4 | 91.7 | 104.6 | -4.1 | –
